Reference: patent US8975417B2, “Pyrazolopyrrolidine derivatives and their use in the treatment of disease” (Novartis AG, priority 2013, dated 2015)

How the values were obtained:
Conditions in all cases: biochemical
His-Brd4(44-477) = His-Brd4(44-477) (Homo sapiens (Human), UniProt O60885); experiment: TR-FRET in-vitro binding assay for BRD4
Method: (§1) TR-FRET In-Vitro Binding Assays for BRD2, BRD3, and BRD4:
(§2) All assays were performed in 384-well microtiter plates. Each assay plate contained 8-point serial dilutions for 40 test compounds, plus 16 high- and 16 low controls. Liquid handling and incubation steps were done on an Innovadyne Nanodrop Express equipped with a robotic arm (Thermo CatX, Perkin Elmer/Caliper Twister II) and an incubator (Liconic STX40, Thermo Cytomat 2C450). The assay plates were prepared by addition of 50 nl per well of compound solution in 90% DMSO HummingBird nanodispenser (Zinsser Analytic). The assay was started by stepwise addition of 4.5 μL per well of bromo domain protein (50 mM HEPES, pH 7.5, 0.005% Tween20, 0.1% BSA, 50 mM NaCl, 45 nM His-Brd2(60-472) or 45 nM His-Brd3(20-477) or 45 nM His-Brd4(44-477) all proteins produced in-house) and 4.5 μL per well of peptide solution (50 mM HEPES, pH 7.5, 0.005% Tween20, 0.1% BSA, 50 mM NaCl, 60 nM acetyl-histone H4 (AcK 5, 8, 12, 16) (Biosyntan GmbH)). Reactions were incubated at 30° C. for 35 minutes. Subsequently 4.5 μL per well detection mix (50 mM HEPES, pH 7.5, 0.005% Tween20, 0.1% BSA, 50 mM NaCl, 3 nM Eu-labeled anti-His6 antibody, 21 nM streptavidin-allophycocyanin) were added. After minutes incubation at 30° C., plates were measured in a Perkin Elmer EnVision multilabel reader.
(§3) Test compounds were dissolved in DMSO (10 mM) and transferred into 1.4 mL flat bottom or V-shaped Matrix tubes carrying a unique 2D matrix. The stock solutions were stored at […] if not used immediately. For the test procedure the vials were defrosted and identified by a scanner whereby a working sheet was generated that guided the subsequent working steps. Compound dilutions were made in 96 well plates. This format enabled the assay of maximally […] at 8 concentrations (single points) including 4 reference compounds, if desired (known BET inhibitors from the prior art, for this and other assays of the type disclosed herein). The dilution protocol included the production of “pre-dilution plates”, “master plates” and “assay plates”.
(§4) Polypropylene 96-well plates were used as pre-dilution plates. […] All dilution steps were done on a HamiltonSTAR robot.
(§5) 30 μL of individual compound dilutions including standard compound and controls of the 4 “pre-dilution plates” were transferred into a 384-well “master plate” including the following concentrations 10000, […], 1000, 300, 100, 30, 10 and 3 μM, respectively in 90% of DMSO.
(§6) Identical “assay plates” were then prepared by pipetting 50 nL each of compound dilutions of the “master plates” into 384-well “assay plates” by means of a HummingBird 384-channel dispenser. These plates were used directly for the assay which was performed in a total volume of 13.55 μL.

His-Brd3(20-477) = His-Brd3(20-477) (Homo sapiens (Human), UniProt Q15059); experiment: TR-FRET in-vitro binding assay for BRD3
Sequence of His-Brd3(20-477) (Q15059 20-477): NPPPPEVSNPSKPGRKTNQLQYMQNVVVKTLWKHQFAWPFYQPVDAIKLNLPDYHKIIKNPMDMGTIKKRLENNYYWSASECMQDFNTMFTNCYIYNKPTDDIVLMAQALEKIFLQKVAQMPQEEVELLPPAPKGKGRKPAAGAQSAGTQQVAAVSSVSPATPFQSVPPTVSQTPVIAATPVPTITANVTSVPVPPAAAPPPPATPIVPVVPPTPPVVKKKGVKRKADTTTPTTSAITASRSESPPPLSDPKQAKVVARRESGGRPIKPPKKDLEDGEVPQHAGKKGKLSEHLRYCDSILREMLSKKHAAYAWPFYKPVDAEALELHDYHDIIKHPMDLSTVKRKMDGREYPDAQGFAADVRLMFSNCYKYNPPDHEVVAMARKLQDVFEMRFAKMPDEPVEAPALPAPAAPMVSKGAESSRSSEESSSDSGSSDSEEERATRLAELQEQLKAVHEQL
Method: as §1, §2, §3, §4, §5, §6

His-Brd2(60-472) = His-Brd2(60-472) (Homo sapiens (Human), UniProt P25440); experiment: TR-FRET in-vitro binding assay for BRD2
Sequence of His-Brd2(60-472) (P25440 60-472): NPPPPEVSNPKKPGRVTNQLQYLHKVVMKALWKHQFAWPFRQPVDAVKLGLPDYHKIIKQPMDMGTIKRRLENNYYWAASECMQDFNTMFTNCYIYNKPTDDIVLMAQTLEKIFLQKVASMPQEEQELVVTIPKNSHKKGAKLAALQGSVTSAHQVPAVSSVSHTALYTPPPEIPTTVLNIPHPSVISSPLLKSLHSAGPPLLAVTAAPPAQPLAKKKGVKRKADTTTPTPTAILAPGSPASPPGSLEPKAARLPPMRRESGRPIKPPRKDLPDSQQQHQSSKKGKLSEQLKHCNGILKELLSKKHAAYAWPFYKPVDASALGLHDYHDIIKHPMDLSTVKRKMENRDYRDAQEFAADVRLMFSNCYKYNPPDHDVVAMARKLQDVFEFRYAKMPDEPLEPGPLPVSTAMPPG
Method: as §1, §2, §3, §4, §5, §6

[1] = target: His-CREBBP (1081-1197) bromodomain (Homo sapiens (Human), UniProt Q92793); experiment: AlphaScreen in-vitro binding assay for CREBBP
Sequence of His-CREBBP (1081-1197) bromodomain (Q92793 1081-1197): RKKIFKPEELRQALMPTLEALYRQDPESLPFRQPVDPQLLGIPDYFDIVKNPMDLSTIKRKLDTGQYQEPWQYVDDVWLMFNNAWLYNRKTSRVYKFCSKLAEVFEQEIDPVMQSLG
Method: AlphaScreen In-Vitro Binding Assay for CREBBP
In order to assess bromodomain selectivity, we set up a binding assay using the bromodomain encoded by the CREBBP gene. […] Reactions were incubated at 30° C. for 35 minutes. Subsequently 4.5 μL per well detection mix (50 mM HEPES, pH 7.5, 0.005% Tween20, 0.02% BSA, 150 mM NaCl, 45 μg/ml Ni-chelate acceptor beads, 45 μg/mL streptavidin-donor beads) (Perkin Elmer)) were added. After 60 minutes incubation at room temperature, plates were measured in a Perkin Elmer EnVision multilabel reader. IC50 values were determined from percent inhibition values at different compound concentrations by non-linear regression analysis.
as §3, §4
These plates were used directly for the assay which was performed in a total volume of 13.55 μL.

| Structure (SMILES) | IC50 (His-Brd4(44-477)) [nM] | IC50 (His-Brd3(20-477)) [nM] | IC50 (His-Brd2(60-472)) [nM] | IC50 [1] [nM] |
| --- | --- | --- | --- | --- |
| Cc1nn(C2CC2)c2c1C(c1ccc(Cl)cc1)N(c1cc(C)c(=O)n(C)c1)C2=O (racemic) [Example 23, 4-(4-chlorophenyl)-1-cyclopropyl-5-(1,5-dimethyl-6-oxo-1,6-dihydropyridin-3-yl)-3-methyl-4,5-dihydropyrrolo[3,4-c]pyrazol-6(1H)-one] | 66 |  |  |  |
| COc1ccc(Cn2nc3c(c2C)C(c2ccc(Cl)cc2)N(c2ccc(=O)n(C)c2)C3=O)cc1 (stereo not shown) [Example 1, 4-(4-chlorophenyl)-2-(4-methoxybenzyl)-3-methyl-5-(1-methyl-6-oxo-1,6-dihydropyridin-3-yl)-4,5-dihydropyrrolo[3,4-c]pyrazol-6(2H)-one] | 140 |  |  |  |
| Cc1[nH]nc2c1C(c1ccc(Cl)cc1)N(c1ccc(=O)n(C)c1)C2=O (stereo not shown) [Example 2, 4-(4-chlorophenyl)-3-methyl-5-(1-methyl-6-oxo-1,6-dihydropyridin-3-yl)-4,5-dihydropyrrolo[3,4-c]pyrazol-6(2H)-one] | 170 |  |  |  |
| Cc1c2c(nn1C)C(=O)N(c1ccc(=O)n(C)c1)C2c1ccc(Cl)cc1 (stereo not shown) [Example 3, 4-(4-chlorophenyl)-2,3-dimethyl-5-(1-methyl-6-oxo-1,6-dihydropyridin-3-yl)-4,5-dihydropyrrolo[3,4-c]pyrazol-6(2H)-one] | 400 | 520 | 580 |  |
| Cc1nn(C)c2c1C(c1ccc(Cl)cc1)N(c1ccc(=O)n(C)c1)C2=O (stereo not shown) [Example 4, 4-(4-chlorophenyl)-1,3-dimethyl-5-(1-methyl-6-oxo-1,6-dihydropyridin-3-yl)-4,5-dihydropyrrolo[3,4-c]pyrazol-6(1H)-one] | 230 |  |  |  |
| Cc1c2c(nn1C)C(=O)N(c1cc(Cl)c(=O)n(C)c1)[C@H]2c1ccc(Cl)cc1 [Example 8, (S)-5-(5-chloro-1-methyl-6-oxo-1,6-dihydropyridin-3-yl)-4-(4-chlorophenyl)-2,3-dimethyl-4,5-dihydropyrrolo[3,4-c]pyrazol-6(2H)-one] | 31000 | 27000 | 36000 |  |
| Cn1cc(N2C(=O)c3n[nH]cc3C2c2ccc(Cl)cc2)cc(Cl)c1=O (stereo not shown) [Example 9, 5-(5-chloro-1-methyl-6-oxo-1,6-dihydropyridin-3-yl)-4-(4-chlorophenyl)-4,5-dihydropyrrolo[3,4-c]pyrazol-6(2H)-one] | 170 | 180 | 210 |  |
| Cn1cc2c(n1)C(=O)N(c1cc(Cl)c(=O)n(C)c1)C2c1ccc(Cl)cc1 (stereo not shown) [Example 10, 5-(5-chloro-1-methyl-6-oxo-1,6-dihydropyridin-3-yl)-4-(4-chlorophenyl)-2-methyl-4,5-dihydropyrrolo[3,4-c]pyrazol-6(2H)-one] | 150 | 130 | 150 |  |
| Cn1cc2c(n1)C(=O)N(c1cc(Cl)c(=O)n(C)c1)[C@@H]2c1ccc(Cl)cc1 [Example 11, (R)-5-(5-chloro-1-methyl-6-oxo-1,6-dihydropyridin-3-yl)-4-(4-chlorophenyl)-2-methyl-4,5-dihydropyrrolo[3,4-c]pyrazol-6(2H)-one] | 130 | 100 | 140 |  |
| Cn1cc2c(n1)C(=O)N(c1cc(Cl)c(=O)n(C)c1)[C@H]2c1ccc(Cl)cc1 [Example 12, (S)-5-(5-chloro-1-methyl-6-oxo-1,6-dihydropyridin-3-yl)-4-(4-chlorophenyl)-2-methyl-4,5-dihydropyrrolo[3,4-c]pyrazol-6(2H)-one] | > 37000 | > 37000 | > 37000 |  |
| Cc1cc(N2C(=O)c3nn(C)cc3C2c2ccc(Cl)cc2)cn(C)c1=O (stereo not shown) [Example 13, 4-(4-chlorophenyl)-5-(1,5-dimethyl-6-oxo-1,6-dihydropyridin-3-yl)-2-methyl-4,5-dihydropyrrolo[3,4-c]pyrazol-6(2H)-one] | 130 | 150 | 180 |  |
| Cn1cc2c(n1)C(=O)N(c1cc(F)c(=O)n(C)c1)C2c1ccc(Cl)cc1 (stereo not shown) [Example 14, 4-(4-chlorophenyl)-5-(5-fluoro-1-methyl-6-oxo-1,6-dihydropyridin-3-yl)-2-methyl-4,5-dihydropyrrolo[3,4-c]pyrazol-6(2H)-one] | 460 |  |  |  |
| Cc1cc(N2C(=O)c3nn(C)cc3[C@@H]2c2ccc(Cl)cc2)cn(C)c1=O [Example 15, (S)-4-(4-chlorophenyl)-5-(1,5-dimethyl-6-oxo-1,6-dihydropyridin-3-yl)-2-methyl-4,5-dihydropyrrolo[3,4-c]pyrazol-6(2H)-one] |  | > 6700 |  |  |
| Cc1cc(N2C(=O)c3nn(C4CC4)c(C)c3[C@@H]2c2ccc(Cl)cc2)cn(C)c1=O [Example 22, (S)-4-(4-chlorophenyl)-2-cyclopropyl-5-(1,5-dimethyl-6-oxo-1,6-dihydropyridin-3-yl)-3-methyl-4,5-dihydropyrrolo[3,4-c]pyrazol-6(2H)-one] |  |  | > 6700 |  |
| Cc1c2c(nn1C)C(=O)N(c1ccc3nnc(C)n3c1)C2c1ccc(Cl)cc1 (stereo not shown) [Example 25, 4-(4-chlorophenyl)-2,3-dimethyl-5-(3-methyl-[1,2,4]triazolo[4,3-a]pyridin-6-yl)-4,5-dihydropyrrolo[3,4-c]pyrazol-6(2H)-one] | 260 | 250 | 270 |  |
| Cc1cc(N2C(=O)c3nn(C)c(C)c3[C@@H]2c2ccc(Cl)cc2)cn(C)c1=O [Example 29, (S)-4-(4-chlorophenyl)-5-(1,5-dimethyl-6-oxo-1,6-dihydropyridin-3-yl)-2,3-dimethyl-4,5-dihydropyrrolo[3,4-c]pyrazol-6(2H)-one] | 31000 | 25000 | 28000 |  |
| Cc1cc(N2C(=O)c3nn(C)c(C)c3[C@H]2c2ccc(Cl)cc2)cn(C)c1=O [Example 30, (R)-4-(4-chlorophenyl)-5-(1,5-dimethyl-6-oxo-1,6-dihydropyridin-3-yl)-2,3-dimethyl-4,5-dihydropyrrolo[3,4-c]pyrazol-6(2H)-one] | 31 |  |  |  |
| Cc1c2c(nn1C)C(=O)N(c1cc(F)c(=O)n(C)c1)C2c1ccc(Cl)cc1 (stereo not shown) [Example 31, 4-(4-chlorophenyl)-5-(5-fluoro-1-methyl-6-oxo-1,6-dihydropyridin-3-yl)-2,3-dimethyl-4,5-dihydropyrrolo[3,4-c]pyrazol-6(2H)-one] | 520 | 470 | 690 |  |
| Cc1c2c(nn1C)C(=O)N(c1ccc(=O)n(C)n1)C2c1ccc(Cl)cc1 (stereo not shown) [Example 32, 4-(4-chlorophenyl)-2,3-dimethyl-5-(1-methyl-6-oxo-1,6-dihydropyridazin-3-yl)-4,5-dihydropyrrolo[3,4-c]pyrazol-6(2H)-one] | 660 | 890 | 1200 |  |
| Cc1cc(N2C(=O)c3nn(C4CC4)cc3C2c2ccc(Cl)cc2)cn(C)c1=O (stereo not shown) [Example 39, 4-(4-chlorophenyl)-2-cyclopropyl-5-(1,5-dimethyl-6-oxo-1,6-dihydropyridin-3-yl)-4,5-dihydropyrrolo[3,4-c]pyrazol-6(2H)-one] | 120 | 91 | 78 |  |
| Cc1nn(C2CC2)c2c1[C@H](c1ccc(Cl)cc1)N(c1cc(Cl)c(=O)n(C)c1)C2=O [Example 50, (S)-5-(5-chloro-1-methyl-6-oxo-1,6-dihydropyridin-3-yl)-4-(4-chlorophenyl)-1-cyclopropyl-3-methyl-4,5-dihydropyrrolo[3,4-c]pyrazol-6(1H)-one] |  |  | > 6700 | > 5100 |
